From patent publication US11851410B2, “Sensors for detection of negatively charged phosphate-containing membranes and membrane components” (THE GOVERNING COUNCIL OF THE UNIVERSITY OF TORONTO, priority 2017, dated 2023)

Key:
[1] = system: E. coli K-12 BW25113 cells; conditions: 40 μM sensor; 10^7-10^8 CFU/mL
Experimental: E. coli K-12 BW25113 cells were grown overnight in M9 minimal media and then harvested the following morning. Cells were then washed (spun at 5000 rpm for 10 min/wash) three times in buffer (50 mM HEPES, 75 mM NaCl, 1% BSA, 0.4% DMSO, pH 7.5). Cell concentrations were then determined using OD600 and cell samples were diluted to the appropriate concentrations.
Samples were run at the Flow Cytometry Facility, Medical Sciences Building, University of Toronto, on a BD LSR Fortessa X20 using the UV laser (emission: 450/50 nm) with low flow rate (15 uL sample/min) for 2 min.
Sample run using UV laser (BD LSR Fortessa X20, emission: 450/50 nm) in 50 mM HEPES, 75 mM NaCl, 1% BSA, 0.4% DMSO, pH 7.5. […] Sample run using UV laser (BD LSR Fortessa X20, emission: 450/50 nm) in 50 mM HEPES, 75 mM NaCl, 1% BSA, 0.4% DMSO, pH 7.5. […] Sample run using UV laser (BD LSR Fortessa X20, emission: 450/50 nm) in 50 mM HEPES, 75 mM NaCl, 1% BSA, 0.4% DMSO, pH 7.5. […] Sample run using UV laser (BD LSR Fortessa X20, emission: 450/50 nm) in 50 mM HEPES, 75 mM NaCl, 1% BSA, 0.4% DMSO, pH 7.5. […] Sample run using UV laser (BD LSR Fortessa X20, emission: 450/50 nm) in 50 mM HEPES, 75 mM NaCl, 1% BSA, 0.4% DMSO, pH 7.5.

[2] = system: POPG (PG) negatively charged vesicles; test: Serial dilution vesicle fluorescence intensity experiments, PG vesicles; format: binding; conditions: sensor 25 μM (PSVue™380 1 μM), 50 mM HEPES, 5% DMSO, pH 7.5
From the text: (§1) The following equations were used for the calculations: […]

[3] = system: POPE (PE) zwitterionic vesicles; test: Serial dilution vesicle fluorescence intensity experiments, PE vesicles; format: binding; conditions: sensor 25 μM (PSVue™380 1 μM), 50 mM HEPES, 5% DMSO, pH 7.5
From the text: as §1

[4] = system: E. coli K-12 BW25113 cells; test: Proof-of-concept E. coli titration (fluorometry); format: cell-based; conditions: sensor 10 μM; 50 mM HEPES, 75 mM NaCl, 1% BSA, 0.4% DMSO, pH 7.5
[5] = system: TOCL (CL) negatively charged vesicles; test: Serial dilution vesicle fluorescence intensity experiments, CL vesicles; format: binding; design: ΔΔFI: unit not given here; conditions: sensor 25 μM (PSVue™380 1 μM), 50 mM HEPES, 5% DMSO, pH 7.5
From the text: as §1

[6] = system: zwitterionic vesicles (PC, PE); test: Vesicle fluorescence intensity experiments, zwitterionic vesicles; format: binding; conditions: sensor 25 μM; vesicles up to 200 μM; λex/em 350/476 nm
Experimental: (§2) Small Unilamellar Vesicles (SUVs) were prepared by the extrusion method. Appropriate amounts of lipid in the desired proportions were weighed out to create 10 mM liposome suspensions. The lipids were then dissolved in a minimum amount of chloroform and vortexed to ensure thorough mixing. The excess solvent was then dried off under a gentle stream of nitrogen and allowed to dry overnight in a vacuum dessicator to remove any remaining traces of solvent. The resulting lipid film was then hydrated with 2 mL of HEPES buffer (50 mM HEPES, pH 7.5) for 1 h. The sample was then subjected to five cycles of freeze-thaw-vortex, cycling between liquid nitrogen and a 60° C. water bath. The resulting suspension of multilamellar vesicles (MLVs) was then extruded 25 times through a 0.1 μm polycarbonate membrane installed in a mini-extruder (Avanti Polar Lipids, Alabaster, AL) to form SUV.
10 mM stock solutions of vesicles were diluted separately to 400 μM and 80 μM in pH 7.5, 50 mM HEPES buffer. […] Fluorescence intensities measured were used to calculate the following parameters: ΔFIexc, ΔΔFIexc, ΔFImon, ΔΔFImon, ΔΔFIexc/mon and ΔΔΔFI. […]
(§3) The fluorescence enhancement of the excimer (ΔFIexc) species in the presence of vesicles was calculated using equation 1, which is defined as the ratio of the emission intensities of the sensor-vesicle sample and the sensor alone.

[7] = system: DOPS (PS) negatively charged vesicles; test: Serial dilution vesicle fluorescence intensity experiments, PS vesicles; format: binding; design: ΔΔFI: unit not given here; conditions: for ΔΔFI: sensor 25 μM (PSVue™380 1 μM), 50 mM HEPES, 5% DMSO, pH 7.5
[8] = system: POPA (PA) negatively charged vesicles; test: Serial dilution vesicle fluorescence intensity experiments, PA vesicles; format: binding; conditions: for ΔΔFI: PA vesicles, sensor 25 μM (PSVue™380 1 μM), 50 mM HEPES, 5% DMSO, pH 7.5
From the text: as §1

[9] = system: negatively charged vesicles (PA, PS, PG, CL); test: Vesicle fluorescence intensity experiments, all negatively charged vesicles; format: binding
Experimental: as §2
10 mM stock solutions of vesicles were diluted separately to 400 μM and 80 μM in pH 7.5, 50 mM HEPES buffer. […] The sensors were dissolved to a concentration of 50 μM (from 800 μM stock solutions in 100% DMSO) in 50 mM HEPES, pH 7.5, 10% DMSO buffer. […] Fluorescence intensities measured were used to calculate the following parameters: ΔFIexc, ΔΔFIexc, ΔFImon, ΔΔFImon, ΔΔFIexc/mon and ΔΔΔFI. The following equations were used for the calculations: […]
Of these, PC and PE represented the zwitterionic vesicles; PS (−1), PA (−1), PG (−1) and CL (−2) represented the negatively charged vesicles.
as §3

[10] = system: DOPS (PS) negatively charged vesicles; test: Serial dilution vesicle fluorescence intensity experiments, PS vesicles; format: binding; design: ΔΔFI: unit not given here; conditions: for ΔΔFI: sensor 25 μM (PSVue™380 1 μM), 50 mM HEPES, 5% DMSO, pH 7.5; remark: listed apart in the source
From the text: as §1
It is estimated that a mammalian cell membrane is composed of 10% PS, with the majority located on the inner leaflet in the healthy state. However, during the early stages of apoptosis, this asymmetry is lost and PS becomes symmetrically distributed resulting in ˜5% of PS externalized to the outer leaflet. To address if compounds of this application could potentially be used for the detection of the PS externalization event during apoptosis, the exemplary sensors were screened against PC vesicles containing biologically-relevant levels of PS ([…]; assuming that approximately half of the lipid head groups will be exposed to the interior of the vesicle). The resulting ΔΔFI for vesicle concentrations up to 40 μM are presented in FIG. 7 and Table 1 (ΔΔFI for vesicle concentrations up to 200 μM is presented in FIG. 4).

[11] = system: Gram-positive bacteria (B. subtilis, B. megaterium, M. luteus, S. epidermidis); conditions: sensor 10 μM; λex/em 350/476 nm
Experimental: Bacteria samples were titrated from 10^8-10^10 cells/mL in a large-volume 12 well plate. Bacteria samples were added to black 384-well plates in triplicate.

[12] = system: camptothecin treated MOLM-13 cells; test: Apoptosis detection by flow cytometry; format: cell-based; conditions: camptothecin 10 μM, 7 hrs; I-3 50 μM, PSVue™380 90.9 μM
Experimental: MOLM-13 cells were cultured in Roswell Park Memorial Institute (RPMI)-1640 Medium supplemented with 10% FCS and 1% antibiotic/antimycotic (Gibco, cat. 15240062).
MOLM-13 cells were cultured to a density of 5.0×10^5 cells/mL in regular media and transferred to 6-well tissue culture treated plates (1.0×10^6 cells/well). Treated Cells. Camptothecin (100 μL of 210 μM camptothecin in media) was added to a final concentration of 10 μM (1% DMSO final). Untreated Cells. DMSO Vehicle (100 μL DMSO in media) was added (1% DMSO final). All cells were then incubated at 37° C. for 7 hrs. […] Cell samples were then treated simultaneously with either 1) exemplary compound I-3 (in HEPES buffer, final concentration of 50 μM), and propidium iodide (0.02 μg/μL) or 2) PSVue™380 (in HEPES buffer, final concentration of 90.9 μM as previously reported^39) and propidium iodide (0.02 μg/μL). Samples were then incubated for 15 min away from light at 37° C. and were then analyzed by flow cytometry (CytoFLEX S, BeckmanCoulter) using the near UV laser (exc: 375 nm, emi: 450/45 nm) and blue laser (exc: 488 nm, emi: 585/42 nm). Gates were set off of single stain samples.

[13] = system: WT and mutant B. subtilis strains; test: Bacteria mutant strain knockout fluorimetry, B. subtilis; format: cell-based; conditions: sensor 10 μM; 10^8 CFUs/mL
From the text: (§4) Fluorescence intensities were used to calculate the excimer emission in response to bacterial strains. Measurements were averaged over two triplicates.

PA vesicles = test: Zinc metalation fluorescence experiments; format: binding
Experimental: Vesicle fluorescence intensity experiments were performed in the absence or presence of zinc(II) (trifluoromethanesulfonate salt). Unmetallated PSVue™380 (PSVue™380*) was also included for reference.
All glassware was treated with 0.1 M HCl overnight, rinsed three times with MilliQ water, and oven dried. […] The sensor-zinc solutions were then combined with PA vesicles, prepared as described above, incubated as described above and the fluorescence emission intensity was then measured as described above.
In an effort to eliminate this possibility, all glassware was acid-treated and all buffers were chelex-treated to remove any metals, and the screens were repeated with PA vesicles. For these experiments, original non-normalized FIexc values were analyzed.

[14] = system: WT and mutant E. coli strains; test: Bacteria mutant strain knockout fluorimetry, E. coli; format: cell-based; conditions: sensor 10 μM; 10^8 CFUs/mL
From the text: as §4

[15] = 33% CL vesicles, 20 μM vesicles
[16] = CL vesicles (50%), 5 μM vesicles
[17] = CL vesicles (50%), 20 μM vesicles
[18] = 75% PS vesicles, 20 μM vesicles
[19] = PS vesicles (50%), 5 μM vesicles
[20] = PS vesicles (50%), 20 μM vesicles
[21] = 25% PS vesicles, 20 μM vesicles

| SMILES | ΔΔFI ([2]; 5 μM vesicles) | ΔΔFI ([2]; 20 μM vesicles) | ΔΔFI ([3]; 5 μM vesicles) | ΔΔFI ([3]; 20 μM vesicles) | ΔΔFI ([5]; 33% CL vesicles, 5 μM vesicles) | ΔΔFI [5, 15] | ΔΔFI [5, 16] | ΔΔFI [5, 17] | ΔΔFI ([7]; 75% PS vesicles, 5 μM vesicles) | ΔΔFI [7, 18] | ΔΔFI [7, 19] | ΔΔFI [7, 20] | ΔΔFI ([8]; 5 μM vesicles) | ΔΔFI ([8]; 20 μM vesicles) | ΔΔFI ([10]; 5% PS vesicles, 5 μM vesicles) | ΔΔFI ([10]; 5% PS vesicles, 20 μM vesicles) | ΔΔFI ([10]; 25% PS vesicles, 5 μM vesicles) | ΔΔFI [10, 21] | detection of Gram-positive bacteria with a fluorometer in bulk solution [11] | other results |
| --- | --- | --- | --- | --- | --- | --- | --- | --- | --- | --- | --- | --- | --- | --- | --- | --- | --- | --- | --- | --- |
| c1cc2ccc3ccc(CN4CCNCCNCCNCC4)c4ccc(c1)c2c34 [I-1] | 2.6 | 5.4 | 1 | 1 | 2.8 | 6.6 | 3.3 | 10.6 | 3.3 | 9.4 | 2.6 | 6.6 | 2.9 | 9.5 | 1.3 | 2.2 | 1.5 | 2.9 | can detect Gram-positive bacteria | detection of bacteria using a flow cytometer [1]: suitable for the detection of bacteria; sensing of increasing amounts of E. coli (ΔFI, ΔΔFI) [4]: capable of sensing increasing amounts of bacteria; ΔFIexc for zwitterionic vesicles [6]: ~1; linear response, upper vesicle concentration for PA ([8]; 25 μM sensor): 50 µM; ΔFI with PA vesicles ([8]; 50 μM PA vesicle concentration, sensor 25 μM): 20; linear response, vesicle concentration range ([9]; 25 μM sensor): 2 to 40 µM; ΔFIexc for all negatively charged vesicles ([9]; sensor 25 μM, vesicles up to 200 μM, λex/em 350/476 nm): ≥ 5 |
| c1cc2ccc3ccc(CN4CCCNCCNCCCNCC4)c4ccc(c1)c2c34 [I-3] | 2.4 | 6.2 | 1 | 1 | 2.4 | 6 | 4.1 | 10.2 | 6.5 | 15.6 | 3.5 | 9.8 | 7.7 | 23.2 | 1.8 | 3.5 | 2.2 | 5.3 | can detect Gram-positive bacteria | detection of early apoptotic cells (propidium iodide co-stain) [12]: detects a population of cells, undetected by the dead cell stain propidium iodide; sensitivity compared to PSVue™380, 5 μM PS vesicles ([7]; 5 μM PS vesicles): comparable; sensing PA compared to PSVue™380 ([8]; Table 1 comparison): superior; ΔΔFI for PA vesicles (FIG. 4) ([8]; sensor 25 μM, vesicles 0-200 μM): ~25; detection of PC vesicles containing 5 and 25% PS ([10]; 5 and 25% PS, corresponding to 2.5 and 12.5% of PS exposed to solution): efficiently detected |
| c1cc2ccc3ccc(CCCCN4CCCNCCNCCCNCC4)c4ccc(c1)c2c34 [II-4] | – | – | – | – | – | – | – | – | – | – | – | – | – | – | – | – | – | – | – | fluorescence fold of mutant B. subtilis strains compared to WT [13]: no changes; FIexc response to increasing PA vesicle concentrations, unmetallated (PA vesicles; acid-treated glassware, chelex-treated buffers, non-normalized FIexc): comparable responses; ability to detect PA vesicles in the absence of Zn^2+ (ΔFI) (PA vesicles; unmetallated sensors, PA vesicles 0-200 μM): retained their ability to detect PA; fluorescence fold of mutant E. coli strains compared to WT [14]: general decrease in fluorescence fold intensity |
